One compound from paper PMC8246065 (The EMBO Journal, 2021) can be followed below.

In assay [1] the test system is HEK293T NOD1/2 KO cells transfected with NOD1 or NOD2 mutants. Description: IL8 ELISA of HEK293T cells transfected with NOD1/NOD2 mutants. It counts as cell-based, human. The method, then:
To differentiate THP‐1 into macrophage‐like cells, THP‐1 cells were stimulated with 50 ng/ml phorbol 12‐myristate 13‐acetate (Sigma‐Aldrich, P8139) for 24 h and then incubated with fresh medium for another 48 h. […] To induce NOD1 or NOD2 expression, HeLa NOD1 or NOD2 cells were treated with 0.5 µg/ml or 0.25 µg/ml doxycycline for at least 16 h, respectively. All cells have been checked for mycoplasma contamination regularly. Bone marrow‐derived macrophages (BMDMs) were obtained from tibial and femural bones and generated with DMEM containing 20% L929 cell supernatant, 10% FBS, 5% heat‐inactivated horse serum, 1 mM sodium pyruvate, and 2 mM L‐glutamine. For BMDM stimulation experiments, BMDMs were treated with IFN‐γ (20 ng/ml) overnight before stimulation.
The mutagenesis was performed with Q5® site‐directed mutagenesis kit (E0554, NEB) according to the manufacturer's instructions. The primers used in this study were as follows: NOD1 E157A F: 5′‐[…]gcg[…]‐3′, NOD1 E157A R: 5′‐[…]‐3′, NOD1 D161A F: 5′‐[…]gcg[…]‐3′, NOD1 D161A R: 5′‐[…]‐3′, NOD1 D203A F: 5′‐[…]gcg[…]‐3′, D203A R: 5′‐[…]‐3′, L218A F: 5′‐[…]gcg[…]‐3′, L218A R: 5′‐[…]‐3′, R237A F: 5′‐[…]gcg[…]‐3′, R237A R: 5′‐[…]‐3′, H257A F: 5′‐[…]gcg[…]‐3′, H257A R: 5′‐[…]‐3′, E267A F: 5′‐[…]gcg[…]‐3′, E267A R: 5′‐[…]‐3′, H290A F: 5′‐[…]gcg[…]‐3′, H290A R: 5′‐[…]‐3′, E306A F: 5′‐[…]gcg[…]‐3′, E306A R: 5′‐[…]‐3′, K324A F: 5′‐[…]gcg[…]‐3′, K324A R: 5′‐[…]‐3′, K328A F: 5′‐[…]gcg[…]‐3′, K328A R: 5′‐[…]‐3′, R340A F: 5′‐[…]gcg[…]‐3′, R340A R: 5′‐[…]‐3′, R344A F: 5′‐[…]gcg[…]‐3′, R344A R: 5′‐[…]‐3′, R350A F: 5′‐[…]gcg[…]‐3′, R350A R: 5′‐[…]‐3′, D372A F: 5′‐[…]gcg[…]‐3′, D372A R: 5′‐[…]‐3′, R373A F: 5′‐[…]gcg[…]‐3′, R373A R: 5′‐[…]‐3′, R399A F: 5′‐[…]gcg[…]‐3′, R399A R: 5′‐[…]‐3′, D423A F: 5′‐[…]gcg[…]‐3′, D423A R: 5′‐[…]‐3′, R435A F: 5′‐5′‐[…]gcg[…]‐3′, R435A R: 5′‐[…]‐3′, Q484A F: 5′‐[…]gcg[…]‐3′, Q484A R: 5′‐[…]‐3′, L495A F: 5′‐[…]gcg[…]‐3′, L495A R: 5′‐[…]‐3′, E514A F: 5′‐[…]gcg[…]‐3′, E514A R: 5′‐[…]‐3′, H517A F: 5′‐[…]gcg[…]‐3′, H517A R: 5′‐[…]‐3′, L540A F: 5′‐[…]gcg[…]‐3′, L540A R: 5′‐[…]‐3′, F544A F: 5′‐[…]gcg[…]‐3′, and F544A R: 5′‐[…]‐3′.

A further assay concerns the target T1, NOD1∆CARD (Homo sapiens, UniProt Q9Y239).
T1 sequence (Q9Y239 196-953 limits assumed): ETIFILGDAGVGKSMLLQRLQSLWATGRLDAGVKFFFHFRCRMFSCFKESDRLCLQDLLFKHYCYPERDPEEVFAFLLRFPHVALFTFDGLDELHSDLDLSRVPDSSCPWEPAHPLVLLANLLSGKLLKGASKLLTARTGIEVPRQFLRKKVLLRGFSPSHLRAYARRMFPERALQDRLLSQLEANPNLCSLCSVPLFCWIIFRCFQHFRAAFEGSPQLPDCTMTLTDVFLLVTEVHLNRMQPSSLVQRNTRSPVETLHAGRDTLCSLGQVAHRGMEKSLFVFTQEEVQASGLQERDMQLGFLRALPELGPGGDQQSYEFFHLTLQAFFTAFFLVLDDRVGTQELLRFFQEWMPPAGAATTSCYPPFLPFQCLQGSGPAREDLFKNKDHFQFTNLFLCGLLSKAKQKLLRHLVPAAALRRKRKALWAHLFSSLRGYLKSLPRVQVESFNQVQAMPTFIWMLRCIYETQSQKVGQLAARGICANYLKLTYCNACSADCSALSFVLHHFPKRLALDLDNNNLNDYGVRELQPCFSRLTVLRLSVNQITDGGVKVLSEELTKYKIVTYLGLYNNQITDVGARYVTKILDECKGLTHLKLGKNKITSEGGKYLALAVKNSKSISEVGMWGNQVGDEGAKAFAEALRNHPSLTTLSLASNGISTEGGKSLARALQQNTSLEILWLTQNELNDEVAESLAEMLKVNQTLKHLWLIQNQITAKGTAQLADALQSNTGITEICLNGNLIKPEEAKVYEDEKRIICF
The assay can be described thus: MST with cell lysates expressing NOD1 mutants. To be noted: Fig EV5D. The assay is classed as binding.

Protocol for NOD1∆CARD: Binding of NOD1, NOD2, GFP, or NLRP3‐GFP to different ligands was measured by microscale thermophoresis (MST). 20 nM GFP or GFP‐tagged proteins in MST buffer (PBS pH 7.4, containing 0.5% NP‐40 and 10 mM DTT) was incubated with different concentrations of ligands. Immediately, samples were loaded into standard glass capillaries (NanoTemper) and thermophoresis analysis was performed on a NanoTemper Monolith NT.115 instrument (40% LED, 80% MST power) at 22°C. A laser on‐time of 30 s and a laser off‐time of 5 s were used. The experiment was performed in triplicates, and the MST curves were fitted using NT analysis software to obtain the K d values.

On to `CCCCCCCCCCCCC/C=C/[C@@H](O)[C@@H](N)COP(=O)(O)O` [S1P, sphingosine‐1‐phosphate], for which, in assay [1] (20 µM with digitonin, 20 h), the “IL8 production in cells expressing LRR-deficient NOD1/2 (NOD1/2∆LRR)” value is listed as “elevated” and the “IL8 production in cells expressing NOD1/2 WT” value was “induced”. For the same compound, the “IL8 production / activation in HEK293T cells expressing NOD2 1007fs” value in assay [1] (20 µM, 48 h, digitonin) is “increased”. Also, the “Activation (IL8) of NOD1 K328A or H517A” value in assay [1] (Fig EV5H) is listed as “not”. Further, at NOD1∆CARD, the “Interaction with NOD1∆CARD by MST” value is given as “still interacted”.
